From patent US20070254910A1, “CHEMICAL COMPOUNDS” (priority 2004, published 2007)

These compounds were tested on HIV (assay: HOS HIV anti-infectivity assay (strain not stated)). Conditions: Human immunodeficiency virus 1, HOS HIV anti-infectivity assay; read-out: Activity Level.
Format: cell-based
Procedure: Compounds were profiled against two HIV-1 viruses, the M-tropic (CCR5 utilizing) Ba-L strain and the T-tropic (CXCR4 utilizing) IIIB strain. Both viruses were propagated in human peripheral blood lymphocytes. Compounds were tested for there ability to block infection of the HOS cell line (expressing hCXCR4/hCCR5/hCD4/pHIV-LTR-luciferase) by either HIV-1 Ba-L or HIV-1 IIIB. Compound cytotoxicity was also examined in the absence of virus addition.
HOS cells (expressing hCXCR4/hCCR5/hCD4/pHIV-LTR-luciferase) were harvested and diluted in Dulbeccos modified Eagles media supplemented with 2% FCS and non-essential amino acid to a concentration of 60,000 cells/ml. The cells were plated into 96-well plates (100 ul per well) and the plates were placed in a tissue culture incubator (37° C.; 5% CO2/95% air) for a period of 24 h.
Subsequently, 50 ul of the desired drug solution (4 times the final concentration) was added to each well and the plates were returned to the tissue culture incubator (37° C.; 5% CO2/95% air) for 1 h. Following this incubation 50 ul of diluted virus was added to each well (approximately 2 million RLU per well of virus). The plates were returned to the tissue culture incubator (37° C.; 5% CO2/95% air) and were incubated for a further 96 h.
Following this incubation the endpoint for the virally infected cultures was quantified following addition of Steady-Glo Luciferase assay system reagent (Promega, Madison, Wis.). Cell viability or non-infected cultures was measured using a CellTiter-Glo luminescent cell viability assay system (Promega, Madison, Wis.). All luminescent readouts are performed on a Topcount luminescence detector (Packard, Meridien, Conn.).

Row | IC50 | Structure (SMILES)
1 | < 100 nM | CN1CCN(c2cccc3nc(CN(C)C4CCCc5cccnc54)c(CO)n23)CC1 (stereo not drawn) [Example 20, (5-(4-Methyl-1-piperazinyl)-2-{[methyl(5,6,7,8-tetrahydro-8-quinolinyl)amino]methyl}imidazo[1,2-a]pyridin-3-yl)methanol]
2 | < 100 nM | COc1ccc([C@H](C)N(Cc2nc3cccc(N4CCN(C)CC4)n3c2CO)[C@H]2CCCc3cccnc32)cc1 [Example 22, [2-({{(1S)-1-[4-(Methyloxy)phenyl]ethyl}[(8S)-5,6,7,8-tetrahydro-8-quinolinyl]amino}methyl)-5-(4-methyl-1-piperazinyl)imidazo[1,2-a]pyridin-3-yl]methanol]
3 | < 100 nM | CN1CCN(c2cccc3nc(CN(C)[C@H]4CCCc5cccnc54)c(CO)n23)CC1 [Example 25, [5-(4-Methyl-1-piperazinyl)-2-({methyl[(8S)-5,6,7,8-tetrahydro-8-quinolinyl]amino}methyl)imidazo[1,2-a]pyridin-3-yl]methanol]
4 | < 100 nM | CN(C)CCN(C)c1cccc2nc(CN(C)[C@H]3CCCc4cccnc43)c(CO)n12 [Example 28, [5-[[2-(Dimethylamino)ethyl](methyl)amino]-2-({methyl[(8S)-5,6,7,8-tetrahydro-8-quinolinyl]amino}methyl)imidazo[1,2-a]pyridin-3-yl]methanol]
5 | < 100 nM | CN1CCN(c2cccc3nc(CN(C)C4CCCCc5cccnc54)c(CO)n23)CC1 (stereo not drawn) [Example 30, (5-(4-Methyl-1-piperazinyl)-2-{[methyl(6,7,8,9-tetrahydro-5H-cyclohepta[b]pyridin-9-yl)amino]methyl}imidazo[1,2-a]pyridin-3-yl)methanol]
6 | < 100 nM | CCN(Cc1nc2cccc(N3CCN(C)CC3)n2c1CO)[C@H]1CCCc2cccnc21 [Example 32, [2-({Ethyl[(8S)-5,6,7,8-tetrahydro-8-quinolinyl]amino}methyl)-5-(4-methyl-1-piperazinyl)imidazo[1,2-a]pyridin-3-yl]methanol]
7 | < 100 nM | CC(C)N(Cc1nc2cccc(N3CCN(C)CC3)n2c1CO)[C@H]1CCCc2cccnc21 [Example 34, [2-({(1-Methylethyl)[(8S)-5,6,7,8-tetrahydro-8-quinolinyl]amino}methyl)-5-(4-methyl-1-piperazinyl)imidazo[1,2-a]pyridin-3-yl]methanol]
8 | < 100 nM | CCCN(Cc1nc2cccc(N3CCN(C)CC3)n2c1CO)[C@H]1CCCc2cccnc21 [Example 36, [5-(4-Methyl-1-piperazinyl)-2-({propyl[(8S)-5,6,7,8-tetrahydro-8-quinolinyl]amino}methyl)imidazo[1,2-a]pyridin-3-yl]methanol]
9 | < 100 nM | CN1CCN(c2cccc3nc(CN(CC4CC4)[C@H]4CCCc5cccnc54)c(CO)n23)CC1 [Example 38, [2-({(Cyclopropylmethyl)[(8S)-5,6,7,8-tetrahydro-8-quinolinyl]amino}methyl)-5-(4-methyl-1-piperazinyl)imidazo[1,2-a]pyridin-3-yl]methanol]
10 | < 100 nM | CN1CCN(c2cccc3nc(CN(Cc4ccccc4)[C@H]4CCCc5cccnc54)c(CO)n23)CC1 [Example 40, [5-(4-Methyl-1-piperazinyl)-2-({(phenylmethyl)[(8S)-5,6,7,8-tetrahydro-8-quinolinyl]amino}methyl)imidazo[1,2-a]pyridin-3-yl]methanol]
11 | < 100 nM | CN1CCN(c2cccc3nc(CN(Cc4ccc(C(F)(F)F)cc4)[C@H]4CCCc5cccnc54)c(CO)n23)CC1 [Example 42, {5-(4-Methyl-1-piperazinyl)-2-[((8S)-5,6,7,8-tetrahydro-8-quinolinyl{[4-(trifluoromethyl)phenyl]methyl}amino)methyl]imidazo[1,2-a]pyridin-3-yl}methanol]
12 | < 100 nM | CN(Cc1nc2cccc(N3CCN4CCCC4C3)n2c1CO)[C@H]1CCCc2cccnc21 (stereo partly drawn) [Example 44, [5-(Hexahydropyrrolo[1,2-a]pyrazin-2(1H)-yl)-2-({methyl[(8S)-5,6,7,8-tetrahydro-8-quinolinyl]amino}methyl)imidazo[1,2-a]pyridin-3-yl]methanol]
